Test results from patent US20240269196A1, “RESPIRATORY TREATMENTS USING SALMONID OIL COMPOSITIONS” (Hofseth Biocare ASA, priority 2020, published 2024).
“And” between values parts separate entries of the source, which are not always exact repeats. Identical values can stand only once. Like-named read-outs stand apart in the source and are kept apart here.

Tests used:
[1] = type: in vivo; conditions: for Mortality and Morbidity: No. of Incidence/No. of Animals: incidence of the observation 'No mortality/morbidity'
Source text: Clinical signs were observed after test item administration and all the other days throughout the study period for all the animals. The cage side observations included (but not limited to) changes in skin and fur, eyes and mucous membranes, as well as respiratory, circulatory, autonomic and central nervous system, somatomotor activity and behavior pattern.
Animals were weighed during randomization, at start of treatment and weekly thereafter, until the end of experimental period.
Raw Data were processed using Statistical Software Sigma Plot 14. The mean and Standard Deviation were calculated using the Software and all data were summarized in tabular form. All continuous data like the body weight was checked for their normality and for homogeneous data, ANOVA was used.

[2] = system: guinea pig peritoneal eosinophils; assay: Chemotactic and chemokinetic activities to leukotriene B4 of peritoneal eosinophils after i.p. pretreatment (Boyden chamber); type: in vivo, Cavia porcellus (Guinea Pig); conditions: for chemokinetic (B) activity to leukotriene B4 (0.1 uM), individual animals / chemotactic (A) activity to leukotriene B4 (0.1 uM), individual animals: guinea pig peritoneal eosinophils; for inhibition of eosinophil chemotactic and chemokinetic activities: i.p. pretreatment, n=3 per dose
Procedure: The animals used in this example were from the species Cavia porcellus (Guinea Pig). A total of 21 male guinea pigs weighing between 200-250 g were selected. These animals were manually randomized into 7 groups i.e. G1 and G2 (OmeGo Salmon oil 30 and 300 mg/kg), G3 and G4 (SEACOD 30 and 300 mg/kg), G5 and G6 were positive control (Fevipiprant 5 and 20 mg/kg) and G7 was negative control (linoleic acid 300 mg/kg) wherein each group consisted of 3 animals.
Guinea pigs were sensitized to create mild eosinphilia by intraperitoneal injection of Polymyxin B (1 mg/animal) once a week for 6 weeks. Polymyxin B was given by dissolving it in 0.9% saline solution. Each animal was injected with 0.5 mL of 0.9% saline containing 1 mg of Polymyxin B. In week 6, in addition to the Polymyxin B, animals were injected with test items belonging to their specific group, as shown in Table 5 below.
Animals were treated with Polymyxin B through an intraperitoneal injection. Along with Polymyxin B even the test items were given through the intraperitoneal route. In the 6th week animals were anesthetized using isoflurane and the intraperitoneal fluid was collected by injecting 50 mL of saline in the peritoneum cavity. After massaging the abdomen for 15 seconds the fluid was drained and collected in the centrifuge tubes. Around 30-35 mL of fluid was collected from each animal. This fluid was centrifuged for 10 mins (400×g 4° C.) and was resuspended in FBS (Fetal bovine serum) medium. Following this step, the fluid was recentrifuged for 10 min (400×g 4° C.) and the cell pellet was analyzed for chemotactic and chemokinetic responses of eosinophils to leukotriene B4 and cell counts using a 96-well microchemotaxis test chamber.
Eosinophils were recovered at greater than 90% purity using a modified procedure reported by Fukusa et. al. (Increased numbers of hypodense eosinophils in the blood of patients with bronchial asthma. Am. Rev. Respir. Dis. 1985; 132:981-985).
The animals were treated with Polymyxin B saline solution once every week for continuously 5 weeks and in the 6th week along with the Polymyxin B test item was given as per the groups. Each animal received 1 mg of Polymyxin B.
The chemotactic and chemokinetic activities were measured by the Boyden chamber method using a 96-well microchamber and expressed as the number of eosinophils counted on the membrane filter under ×400 magnification (cells/five fields). The chemokinetic activity to leukotriene B4 was examined by placing the same concentration of leukotriene B4 (0.1 μM) in both compartments of the chamber. Viability of the eosinophils was determined by the Trypan blue dye exclusion test after incubation for 90 min. All samples were assayed in duplicate. Blood was also collected on the same day and plasma was separated and stored at −20° C. for follow-on anti-inflammatory biomarker assays.

[3] = 20 mg (i.p.), compared to control

| SMILES | Mortality and Morbidity: Observation ([1]; 5 mg/kg bw) | Mortality and Morbidity: No. of Incidence/No. of Animals ([1]; 5 mg/kg bw) | Mortality and Morbidity: Observation ([1]; 20 mg/kg bw) | Mortality and Morbidity: No. of Incidence/No. of Animals ([1]; 20 mg/kg bw) | chemokinetic (B) activity to leukotriene B4 (0.1 uM), individual animals ([2]; 5 mg/kg bw i.p.) | chemotactic (A) activity to leukotriene B4 (0.1 uM), individual animals ([2]; 5 mg/kg bw i.p.) | Maximum inhibition for chemokinesis [2, 3] | Maximum inhibition for chemotaxis [2, 3] | chemokinetic (B) activity to leukotriene B4 (0.1 uM), individual animals ([2]; 20 mg/kg bw i.p.) | chemotactic (A) activity to leukotriene B4 (0.1 uM), individual animals ([2]; 20 mg/kg bw i.p.) | inhibition of eosinophil chemotactic and chemokinetic activities [2] | chemokinetic (B) activity to leukotriene B4 (0.1 uM), individual animals ([2]; 300 mg/kg bw i.p.) | chemotactic (A) activity to leukotriene B4 (0.1 uM), individual animals ([2]; 300 mg/kg bw i.p.) |
| --- | --- | --- | --- | --- | --- | --- | --- | --- | --- | --- | --- | --- | --- |
| Cc1c(CC(=O)O)c2cccnc2n1Cc1ccc(S(C)(=O)=O)cc1C(F)(F)F [Fevipiprant] | No mortality/morbidity | 03/03 | No mortality/morbidity | 03/03 | 290 Cells/5 fields (2×) and 280 Cells/5 fields | 425 Cells/5 fields and 390 Cells/5 fields and 420 Cells/5 fields | 51.7% | 68.0% | 160 Cells/5 fields and 175 Cells/5 fields and 165 Cells/5 fields | 320 Cells/5 fields and 325 Cells/5 fields and 330 Cells/5 fields | significantly inhibited | – | – |
| CCCCC/C=C\C/C=C\CCCCCCCC(=O)O [Linoleic acid] | – | – | – | – | – | – | – | – | – | – | did not inhibit | 335 Cells/5 fields and 360 Cells/5 fields and 340 Cells/5 fields | 770 Cells/5 fields and 790 Cells/5 fields and 760 Cells/5 fields |
